Measured values published in US7132231B2, “Fluorescence polarization method for determining viral inhibitors” (priority 2001, dated 2006).

Key:
[1] = target: T1, Pol/UL42 interaction (Oregon Green-peptide E / MBP-UL42Δ340) (Human herpesvirus 1, UniProt P10226); experiment: Fluorescence polarization (FP) assay of Pol peptide/UL42 binding; design: species or system herpes simplex virus; details: for dose dependent change in the FP signal: serial dilution, FIG. 3
T1 construct: made in house; host or cells: E. coli BL21(de3)pLysS (UL42Δ340 fusion); peptide E synthetic
Procedure: Peptide probe and MBP-UL42. A peptide comprising the 18 C-terminal amino acids of HSV Pol (peptide E) was synthesized, N-terminally labeled with the pentafluorofluorescein-derivative Oregon Green 514 (Molecular Probes) and HPLC-purified. A truncated version of UL42 (UL42Δ340) was expressed in BL21(de3)pLysS E.coli as maltose binding protein fusion as described [Bridges et al. 2001] and purified over an amylose column (New England Biolabs). […] After elution with 10 mM maltose in 50 mM TrisHCl, 1 mM DTT, 0.5 mM EDTA, 4% Glycerol, 200 mM NaCl and Complete™ protease inhibitors (Roche Molecular Biochemicals), the protein was concentrated when necessary and stored at −80° C. until further use. After thawing, the purification buffer was exchanged to low fluorescent grade reagents (PanVera) and maltose was removed simultaneously using 10-DG Bio-Gel columns (BioRad). Fluorescence polarization assays. 1 nM of Oregon Green-peptide E was added to 7 uM MBP-UL42Δ340 and kept on ice until the mix was distributed into black 384-well plates (LJL Biosystems) in a total volume of 20 ul per well. The buffer conditions were 50 mM TrisHCl pH 7.5, 1 mM DTT, 0.5 mM EDTA, 150 mM NaCl, 4% Glycerol and 100 ug ml^−1 bovine gamma globulin. All chemicals were low fluorescent grade (PanVera).
Using this assay, the 16,320 compound Chembridge library that had been purchased by the Harvard Institute of Chemistry and Cell Biology (ICBB) was screened. Small molecules (5 mg ml^−1 in DMSO; ChemBridge) were screened using 384-pin arrays (Genetix), and 40 nl of each compound was transferred into every well. After incubation between 5 and 45 minutes at room temperature, the FP values were determined in the Analyst plate reader (LJL Biosystems). Chemicals for further testing were obtained from ChemBridge.
DNA polymerase long-chain synthesis assay. Compounds which elicited a decrease in the fluorescence polarization, when compared to control values, were tested for the ability to inhibit long-chain DNA synthesis via inhibition of polymerase subunit assembly [Digard et al. 1995; Bridges et al. 2001] using a poly-A template (Amersham Pharmacia) and an oligo-dT primer (Roche Molecular Biochemicals) on which Pol alone adds only a few bases. Reaction mixtures (50 mM Tris-HCl pH 7.5, 100 mM ammonium sulfate, 3 mM MgCl2, 0.1 mM EDTA, 1 mM DTT, 4% Glycerol, 40 ug ml^−1 BSA, 100 ug ml^−1 primer/template, 50 uM α-^32P-TTP (111 TBq/mmol; NEN Life Science products)), contained 200 fmol of HSV Pol ([Weisshart et al. 1994]), 400 fmol of HSV MBP-UL42 and varying amounts of compound in a final volume of 25 ul. Reactions were carried out at 37° C. for 5 minutes and stopped by adding 5 ul of alkaline loading buffer (2mM EDTA, 50mM NaOH, 2.5% glycerol, 0.025% bromocresol green) and placing them on ice and were then loaded onto an 4% alkaline agarose gel. Gels were dried over night and exposed to phosphorescence screens (BioRad). Catalytic subunit activity filter binding assay. Compounds which elicited a decrease in fluorescence polarization were tested for the ability to inhibit DNA synthesis by Pol alone using the oligo-(dT)/poly-(dA) primer-template. Reaction mixtures (50 mM TrisHCl pH 7.5, 100 mM ammonium sulfate, 3 mM MgCl2, 0.1 mM EDTA, 1 mM DTT, 4% Glycerol, 40 μg ml^31 1 BSA, 100 μg ml^−1 primer/template, 50 μM α-^32P-TTP (111 TBq/mmol)) contained 200 fmol of HSV Pol and various amounts of each compound in a final volume of 25 μl. Reactions were carried out at 37° C. for 25 minutes and stopped by placing 10 μl of the reaction mix onto DE81 filter discs. After washes in sodium hydrogen phosphate, water and ethanol, they were counted in a liquid scintillation analyzer (Packard 1600 TR). Plaque reduction assay. Confluent monolayers of Vero (African green monkey kidney) cells in 12-well dishes were infected with herpes virus strain 17 dilutions such that each well received between 25 and 50 PFU. […]

HSV Pol [2] = target: T2, HSV Pol (Human herpesvirus 1, UniProt P04293); experiment: Catalytic subunit activity filter binding assay (Pol alone); assay type: biochemical, herpes simplex virus
T2 construct: in presence of the whole catalytic subunit
Procedure: (§1) DNA polymerase long-chain synthesis assay. Compounds which elicited a decrease in the fluorescence polarization, when compared to control values, were tested for the ability to inhibit long-chain DNA synthesis via inhibition of polymerase subunit assembly [Digard et al. 1995; Bridges et al. 2001] using a poly-A template (Amersham Pharmacia) and an oligo-dT primer (Roche Molecular Biochemicals) on which Pol alone adds only a few bases. Reaction mixtures (50 mM Tris-HCl pH 7.5, 100 mM ammonium sulfate, 3 mM MgCl2, 0.1 mM EDTA, 1 mM DTT, 4% Glycerol, 40 ug ml^−1 BSA, 100 ug ml^−1 primer/template, 50 uM α-^32P-TTP (111 TBq/mmol; NEN Life Science products)), contained 200 fmol of HSV Pol ([Weisshart et al. 1994]), 400 fmol of HSV MBP-UL42 and varying amounts of compound in a final volume of 25 ul. Reactions were carried out at 37° C. for 5 minutes and stopped by adding 5 ul of alkaline loading buffer (2mM EDTA, 50mM NaOH, 2.5% glycerol, 0.025% bromocresol green) and placing them on ice and were then loaded onto an 4% alkaline agarose gel. Gels were dried over night and exposed to phosphorescence screens (BioRad). Catalytic subunit activity filter binding assay. Compounds which elicited a decrease in fluorescence polarization were tested for the ability to inhibit DNA synthesis by Pol alone using the oligo-(dT)/poly-(dA) primer-template. Reaction mixtures (50 mM TrisHCl pH 7.5, 100 mM ammonium sulfate, 3 mM MgCl2, 0.1 mM EDTA, 1 mM DTT, 4% Glycerol, 40 μg ml^31 1 BSA, 100 μg ml^−1 primer/template, 50 μM α-^32P-TTP (111 TBq/mmol)) contained 200 fmol of HSV Pol and various amounts of each compound in a final volume of 25 μl. Reactions were carried out at 37° C. for 25 minutes and stopped by placing 10 μl of the reaction mix onto DE81 filter discs. After washes in sodium hydrogen phosphate, water and ethanol, they were counted in a liquid scintillation analyzer (Packard 1600 TR). Plaque reduction assay. Confluent monolayers of Vero (African green monkey kidney) cells in 12-well dishes were infected with herpes virus strain 17 dilutions such that each well received between 25 and 50 PFU. Diluted virus was absorbed to cells in 2 ml Dulbecco's modified Eagle's medium containing 2.5% newborn calf serum, 100 U penicillin G ml^−1 and 100 ug streptomycin sulfate ml^−1 for 1 hour at 37° C. in a humidified CO2 incubator. After absorption, triplicate infected cultures were overlaid with 2% methyl cellulose in Dulbecco's modified Eagle's medium containing 5% newborn calf serum, 100 U penicillin G ml^−1, 100 ug streptomycin sulfate ml^−1 and various concentrations of the compounds which elicited a decrease in fluorescence polarization and incubated at 37° C. in a humidified CO2 incubator. Plaques were visualized by crystal violet staining at 2 to 3 days post infection and were counted on the following day [Coen et al. 1985]. Cytotoxicity assays. Vero cells (5×10^4 cells per well) were seeded into 96-well plates and treated with various concentrations of the compounds (which elicited a decrease in the fluorescence polarization) for 72 h in quadruplicates. […] In parallel, equally compound-treated cells were fixed by adding 95% ethanol, stained with crystal violet solution and washed. After addition of 100 ul acidified ethanol (EtOH:HCl=99:1) to dissolve the crystal violet, the plates were read in the plate reader (Wallac). Viral yield assay. Vero cells were seeded into 96-well (5×10^4 cells per well) tissue culture plates in 0.2 ml Dulbecco's modified Eagle's medium containing 2.5% newborn calf serum and 100 U penicillin G ml^−1. Cultures were inoculated with HSV strain 17 at an MOI of 5 PFU per cell. The virus inoculum was replaced after two hours with medium containing dilution series of test compounds and left for 24 hours. After two cycles of freeze-thawing, each drug dilution row was transferred to a freshly seeded 96-well plate and serially 1:3 diluted over the whole plate. After two days, plaques were stained and counted under a microscope [Pritchard et al. 1990]. […]

HSV Pol [3] = target: T3, HSV Pol (Human herpesvirus 1, UniProt P04293, N46K); experiment: as above; assay type: biochemical, herpes simplex virus; details: at higher compound concentrations, FIG. 5
T3 construct: in presence of the whole catalytic subunit
Procedure: as §1

[4] = Cytotoxicity assay (XTT / crystal violet); assay type: cell-based, African green monkey; details: monkey; for CC50 at 72 h: Vero cells, read-out: Toxicity IC50
Procedure: as §1, with “Vero cells were seeded into 96-well (5×10^4 cells per well) tissue culture plates in 0.2 ml Dulbecco's modified Eagle's medium containing 2.5% newborn calf serum and 100 U penicillin G ml^−1. Cultures were inoculated with HSV strain 17 at an MOI of 5 PFU per cell. The virus inoculum was replaced after two hours with medium containing dilution series of test compounds and left for 24 hours. After two cycles of freeze-thawing, each drug dilution row was transferred to a freshly seeded 96-well plate and serially 1:3 diluted over the whole plate.” left out

[5] = target: T4, Pol/UL42 long-chain DNA synthesis (HSV Pol + HSV MBP-UL42) (Human herpesvirus 1, UniProt P10226); experiment: DNA polymerase long-chain synthesis assay; assay type: biochemical, herpes simplex virus; details: for ability of UL42 to stimulate long-chain synthesis by Pol: FIG. 4, BP1, BP3, BP5 at 30 μM, BP9 at 100, 75, 50, 25 and 12 μM
T4 construct: in presence of the whole catalytic subunit; made in house; host or cells: UL42 fusion: E. coli BL21(de3)pLysS
Procedure: as §1

[6] = test system: Pol/UL42 long-chain DNA synthesis (HSV Pol + HSV MBP-UL42); details: literature values [Digard et al. 1995; Bridges et al. 2000]; read-out: IC50 for specific inhibition of UL42 stimulated long-chain DNA synthesis; cited from earlier work
HSV strain 17 = experiment: Viral yield assay; assay type: cell-based, herpes simplex virus; details: Vero cells, MOI of 5, 24 h; read-out: ED90 viral yield reduction
Procedure: (§2) DNA polymerase long-chain synthesis assay. Compounds which elicited a decrease in the fluorescence polarization, when compared to control values, were tested for the ability to inhibit long-chain DNA synthesis via inhibition of polymerase subunit assembly [Digard et al. 1995; Bridges et al. 2001] using a poly-A template (Amersham Pharmacia) and an oligo-dT primer (Roche Molecular Biochemicals) on which Pol alone adds only a few bases. […] Compounds which elicited a decrease in fluorescence polarization were tested for the ability to inhibit DNA synthesis by Pol alone using the oligo-(dT)/poly-(dA) primer-template. […] After washes in sodium hydrogen phosphate, water and ethanol, they were counted in a liquid scintillation analyzer (Packard 1600 TR). […] After absorption, triplicate infected cultures were overlaid with 2% methyl cellulose in Dulbecco's modified Eagle's medium containing 5% newborn calf serum, 100 U penicillin G ml^−1, 100 ug streptomycin sulfate ml^−1 and various concentrations of the compounds which elicited a decrease in fluorescence polarization and incubated at 37° C. in a humidified CO2 incubator. Plaques were visualized by crystal violet staining at 2 to 3 days post infection and were counted on the following day [Coen et al. 1985]. […] After addition of 100 ul acidified ethanol (EtOH:HCl=99:1) to dissolve the crystal violet, the plates were read in the plate reader (Wallac). […]

herpes virus strain 17 = experiment: Plaque reduction assay; assay type: cell-based, herpes simplex virus; details: Vero cells, data not shown
Procedure: as §2

T2 sequence (P04293 whole entry N46K): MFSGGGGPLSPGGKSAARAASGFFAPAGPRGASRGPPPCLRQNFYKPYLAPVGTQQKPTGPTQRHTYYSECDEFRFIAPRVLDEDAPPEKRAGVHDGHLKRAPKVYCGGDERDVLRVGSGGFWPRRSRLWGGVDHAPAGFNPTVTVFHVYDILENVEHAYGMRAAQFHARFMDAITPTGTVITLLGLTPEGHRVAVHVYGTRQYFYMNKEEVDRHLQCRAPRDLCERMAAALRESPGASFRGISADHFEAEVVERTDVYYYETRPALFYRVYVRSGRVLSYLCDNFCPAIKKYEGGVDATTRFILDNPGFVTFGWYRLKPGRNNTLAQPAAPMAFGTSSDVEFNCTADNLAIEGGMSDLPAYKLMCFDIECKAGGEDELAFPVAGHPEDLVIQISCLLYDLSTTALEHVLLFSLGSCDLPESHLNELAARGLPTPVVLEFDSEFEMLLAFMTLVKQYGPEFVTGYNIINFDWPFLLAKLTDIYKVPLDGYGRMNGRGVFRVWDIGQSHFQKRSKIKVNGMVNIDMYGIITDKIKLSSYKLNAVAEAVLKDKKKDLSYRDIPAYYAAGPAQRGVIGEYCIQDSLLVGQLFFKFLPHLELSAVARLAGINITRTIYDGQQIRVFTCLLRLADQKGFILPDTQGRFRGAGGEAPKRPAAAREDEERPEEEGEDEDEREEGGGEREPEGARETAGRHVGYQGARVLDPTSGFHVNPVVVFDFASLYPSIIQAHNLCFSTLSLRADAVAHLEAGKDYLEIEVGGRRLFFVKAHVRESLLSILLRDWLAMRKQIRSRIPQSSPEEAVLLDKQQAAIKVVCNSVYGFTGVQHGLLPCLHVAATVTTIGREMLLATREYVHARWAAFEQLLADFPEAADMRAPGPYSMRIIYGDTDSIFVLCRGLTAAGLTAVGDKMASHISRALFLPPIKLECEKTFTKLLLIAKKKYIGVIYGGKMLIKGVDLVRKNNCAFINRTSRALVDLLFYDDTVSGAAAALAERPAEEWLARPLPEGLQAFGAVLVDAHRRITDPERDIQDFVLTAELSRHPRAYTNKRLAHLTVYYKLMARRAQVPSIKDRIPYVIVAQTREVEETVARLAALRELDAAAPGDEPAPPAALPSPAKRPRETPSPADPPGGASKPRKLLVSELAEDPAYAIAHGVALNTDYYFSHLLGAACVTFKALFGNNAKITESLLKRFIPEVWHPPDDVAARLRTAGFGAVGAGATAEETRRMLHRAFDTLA
T3 sequence (P04293 whole entry N46K): as above
T1 sequence (P10226 1-339, stated change not applied): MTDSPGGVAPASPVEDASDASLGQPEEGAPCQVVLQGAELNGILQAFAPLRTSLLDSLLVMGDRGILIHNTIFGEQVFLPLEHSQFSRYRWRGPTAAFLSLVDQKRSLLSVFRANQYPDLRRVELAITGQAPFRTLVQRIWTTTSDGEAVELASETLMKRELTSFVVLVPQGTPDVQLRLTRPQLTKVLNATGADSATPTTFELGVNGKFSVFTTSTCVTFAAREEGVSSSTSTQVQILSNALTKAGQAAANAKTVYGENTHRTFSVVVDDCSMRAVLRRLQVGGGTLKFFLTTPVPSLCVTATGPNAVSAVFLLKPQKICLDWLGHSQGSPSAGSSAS
T4 sequence (P10226 1-339): as the sequence (P10226 1-339, stated change not applied) above

| Molecule | IC50 [1] | dose dependent change in the FP signal [1] | IC50 (HSV Pol [2]) | Pol activity in absence of UL42 (HSV Pol [3]) | CC50 at 72 h [4] | IC50 [5] | ability of UL42 to stimulate long-chain synthesis by Pol [5] | IC50 [6] | EC90 (HSV strain 17) | plaque formation (herpes virus strain 17) | CC50 ([4]; vero cells, Vero cell line, read-out: 50% toxic dose) |
| --- | --- | --- | --- | --- | --- | --- | --- | --- | --- | --- | --- |
| CSCCC(C(=O)O)N1C(=O)/C(=C/c2ccc(Cl)cc2Cl)SC1=S (stereo not drawn) [BP9] | 48 µM | dose dependent change | 25 µM | significantly reduced | 200 µM | 25 µM | greatly reduced |  |  |  |  |
| CC(C)C(C(=O)O)N1C(=O)/C(=C/c2ccc(Cl)cc2Cl)SC1=S (stereo not drawn) [BP3] | 12 µM | dose dependent change | 25 µM | significantly reduced | 200 µM | 30 µM | greatly reduced |  |  |  |  |
| CSCC[C@H](NC(=O)[C@H](CCCNC(=N)N)NC(=O)[C@H](CCCNC(=N)N)NC(=O)[C@@H](NC(=O)[C@H](CCC(=O)O)NC(=O)[C@H](CCC(=O)O)NC(=O)[C@H](C)NC(=O)[C@@H](NC(=O)[C@H](C)NC(=O)CNC(=O)[C@H](C)NC(=O)CNC(=O)[C@@H](NC(=O)[C@H](C)NC(=O)CNC(=O)[C@H](Cc1ccccc1)NC(=O)CNC(=O)[C@H](C)NC(=O)[C@@H](NC(=O)[C@H](CCCNC(=N)N)NC(=O)[C@H](CC(C)C)NC(=O)[C@H](CCCNC(=N)N)NC(=O)[C@H](C)NC(=O)[C@H](C)NC(=O)[C@@H](NC(=O)[C@H](CC(=O)O)NC(=O)[C@H](CC(=O)O)NC(C)=O)C(C)C)[C@@H](C)O)C(C)C)[C@@H](C)O)[C@@H](C)O)C(=O)N[C@@H](CC(C)C)C(=O)N[C@@H](Cc1c[nH]cn1)C(=O)N[C@@H](CCCNC(=N)N)C(=O)N[C@@H](C)C(=O)N[C@@H](Cc1ccccc1)C(=O)N[C@@H](CC(=O)O)C(=O)N[C@H](C(=O)N[C@@H](CC(C)C)C(=O)N[C@@H](C)C(N)=O)[C@@H](C)O [peptide A] |  |  |  |  |  |  |  | 3 µM |  |  |  |
| Cc1ccc(C(C)C)cc1OCC(=O)NN=Cc1cc([N+](=O)[O-])ccc1O [BP1] | 35 µM | dose dependent change | > 100 µM | did not show a significant change | 20 µM | 25 µM | greatly reduced |  |  |  |  |
| ATAEEETRRMLHRAFDTLA [peptide E, Ac-Ala-Thr-Ala-Glu-Glu-Glu-Thr-Arg-Arg-Met-Leu-His-Arg-Ala-Phe-Asp-Thr-Leu-Ala-NH2] |  |  |  |  |  |  |  | 11 µM |  |  |  |
| O=C(Nc1cccc2nsnc12)c1cc(Br)ccc1NS(=O)(=O)c1ccc(Cl)cc1 [BP5] | 15 µM | dose dependent change | > 100 µM | did not show a significant change | 50 µM | 26 µM | greatly reduced |  | 0.4 µM | completely abolish | 50 µM |
